Experimental data from patent US10065941B2, “Aminotriazine derivative and pharmaceutical composition comprising the same” (Shionogi & Co., Ltd., priority 2013, dated 2018).

Biological target: human P2X3 receptor (Homo sapiens (Human), UniProt P56373)
Assay: Evaluation of human P2X3 receptor inhibitory activity (Test Example 1)
Type: cell-based
Conditions: C6BU-1 cell transfected with human P2X3 receptor gene, FLIPR 384
Summary of the method: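 FLIPR calcium read-out: signal taken as peak fluorescence after ATP addition divided by starting fluorescence, and IC50 calculated from it. Compound added 5 min before 150 nM ATP solution (pre-dispense stock) to Fluo-3-AM-loaded C6BU-1 cells stably transfected with human P2X3; HEPES buffer pH 7.5 with probenecid.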

Chain of human P2X3 receptor (P56373 whole entry): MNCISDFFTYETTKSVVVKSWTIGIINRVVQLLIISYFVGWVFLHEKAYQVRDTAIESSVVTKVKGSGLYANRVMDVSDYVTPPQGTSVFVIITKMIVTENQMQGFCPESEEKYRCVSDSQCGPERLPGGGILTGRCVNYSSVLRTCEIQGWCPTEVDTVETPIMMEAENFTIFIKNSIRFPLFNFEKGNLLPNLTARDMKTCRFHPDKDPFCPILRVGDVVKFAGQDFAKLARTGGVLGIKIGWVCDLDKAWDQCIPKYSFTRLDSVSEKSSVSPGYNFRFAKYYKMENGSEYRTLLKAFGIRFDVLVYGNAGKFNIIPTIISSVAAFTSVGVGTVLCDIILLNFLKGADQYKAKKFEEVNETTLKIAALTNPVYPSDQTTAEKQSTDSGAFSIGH

Cc1ccc(Cn2c(=O)n(CCC(=O)O)c(=O)[nH]/c2=N\c2ccc(Oc3ccccn3)c(Cl)c2)cc1 [Compound R-298]
IC50: 9 nM

COC(=O)[C@H](Cn1c(=O)[nH]/c(=N\c2ccc(Oc3ncccc3F)cc2)n(Cc2ccc(Cl)cc2)c1=O)OC [Compound I-099]
IC50: 6 nM

COC(=O)C(C)(C)Cn1c(=O)[nH]/c(=N\c2ccc(N3CCCCC3)c(F)c2)n(Cc2ccc(Cl)cc2)c1=O [Compound R-141]
IC50: 47 nM

COC(=O)C(C)(C)Cn1c(=O)[nH]/c(=N\c2ccc(Oc3cccc(F)n3)cc2)n(Cc2ccc(Cl)cc2)c1=O [Compound I-008]
IC50: 7 nM

COC(=O)C(C)(C)Cn1c(=O)[nH]/c(=N\c2ccc(Oc3ncccc3C#N)cc2)n(Cc2ccc(Cl)cc2)c1=O [Compound I-046]
IC50: 19 nM

CCOC(=O)CCCn1c(=O)[nH]/c(=N\c2ccc(Oc3cccc(F)n3)cc2)n(Cc2ccc(C)cc2)c1=O [Compound R-296]
IC50: 5 nM

Cc1ccc(Cn2c(=O)n(CC(C)(C)C(=O)O)c(=O)[nH]/c2=N\c2ccc(Oc3ncc(C)s3)cc2)cc1 [Compound R-219]
IC50: 11 nM

Cc1ccc(Cn2c(=O)n(CC(C)(C)C(=O)O)c(=O)[nH]/c2=N\c2ccc(Oc3ccc(F)cn3)cc2)cc1 [Compound I-041]
IC50: 9 nM

COc1cc(Oc2ccc(/N=c3\[nH]c(=O)n(CC(C)(C)C(=O)O)c(=O)n3Cc3ccc(Cl)cc3)cc2)cc(F)n1 [Compound R-071]
IC50: 6 nM

CC(=O)c1ccc(Oc2ccc(/N=c3\[nH]c(=O)n(C[C@H](C)C(=O)O)c(=O)n3Cc3ccc(Cl)cc3)cc2)nc1 [Compound I-259]
IC50: 5 nM

COC(=O)[C@H](C)Cn1c(=O)[nH]/c(=N\c2ccc(Oc3ccccn3)cc2)n(Cc2ccc(Cl)cc2)c1=O [Compound I-131]
IC50: 8 nM

COC(=O)[C@@H](C)Cn1c(=O)[nH]/c(=N\c2ccc(O[C@H](C)C(F)(F)F)c(C)c2)n(Cc2ccc(Cl)cc2)c1=O [Compound R-097]
IC50: 212 nM

O=c1[nH]c(=O)n(Cc2ccc(Cl)cc2)/c(=N/c2ccc(Oc3ccc(F)cn3)cc2)[nH]1 [Compound R-170]
IC50: 193 nM

COC(=O)[C@H](C)[C@H](C)n1c(=O)[nH]/c(=N\c2ccc(Oc3ccc(Cl)cn3)cc2)n(Cc2ccc(C)cc2)c1=O [Compound I-120]
IC50: 9 nM

O=C(O)C1(Cn2c(=O)[nH]/c(=N\c3ccc(Oc4ncccc4F)cc3)n(Cc3ccc(Cl)cc3)c2=O)CC1 [Compound I-067]
IC50: 11 nM

COC(=O)[C@@H](C)Cn1c(=O)[nH]/c(=N\c2ccc(Oc3cnc(C(F)(F)F)cn3)cc2)n(Cc2ccc(Cl)cc2)c1=O [Compound R-035]
IC50: 8 nM

CCOC(=O)Cn1c(=O)[nH]/c(=N\c2ccc(Oc3ccccn3)cc2)n(Cc2ccc(F)cc2)c1=O [Compound R-307]
IC50: 13 nM

C[C@H](CC(=O)O)n1c(=O)[nH]/c(=N\c2ccc(Oc3cccc(F)n3)cc2)n(Cc2ccc(Cl)cc2)c1=O [Compound I-163]
IC50: 8 nM

COC(=O)C(C)Cn1c(=O)[nH]/c(=N\c2ccc(Oc3ccc(OC(F)F)cn3)cc2)n(Cc2ccc(Cl)cc2)c1=O (stereo not drawn) [Compound R-026]
IC50: 8 nM

C[C@@H](Cn1c(=O)[nH]/c(=N\c2ccc(Oc3ccccn3)c(Cl)c2)n(Cc2ccc(Cl)cc2)c1=O)C(=O)O [Compound I-243]
IC50: 7 nM

COC(=O)[C@@H](C)Cn1c(=O)[nH]/c(=N\c2ccc(Oc3ncns3)cc2)n(Cc2ccc(Cl)cc2)c1=O [Compound R-134]
IC50: 5 nM

CCc1oc2ccc(/N=c3\[nH]c(=O)n(C[C@H](C)C(=O)O)c(=O)n3Cc3ccc(C)cc3)cc2c1C [Compound R-222]
IC50: 9 nM

CC(C)(C)n1c(=O)[nH]/c(=N\c2ccc(Oc3cccc(C(N)=O)n3)cc2)n(Cc2ccc(Cl)cc2)c1=O [Compound R-233]
IC50: 318 nM

COC(=O)[C@@H](C)Cn1c(=O)[nH]/c(=N\c2ccc(Oc3cncc(C)c3)cc2)n(Cc2ccc(Cl)cc2)c1=O [Compound R-184]
IC50: 10 nM

Cc1nccc(Oc2ccc(/N=c3\[nH]c(=O)n(CC(C)(C)C(=O)O)c(=O)n3Cc3ccc(Cl)cc3)cc2)n1 [Compound R-045]
IC50: 14 nM

CO[C@@H](Cn1c(=O)[nH]/c(=N\c2ccc(Oc3cccc(F)n3)cc2)n(Cc2ccc(Cl)cc2)c1=O)C(=O)O [Compound I-125]
IC50: 5 nM

COC(=O)[C@@H](C)Cn1c(=O)[nH]/c(=N\c2ccc(Oc3cc(F)ccn3)cc2)n(Cc2ccc(Cl)cc2)c1=O [Compound I-068]
IC50: 5 nM

C[C@@H](Cn1c(=O)[nH]/c(=N\c2ccc(Oc3ccccn3)cc2)n(C[C@H]2CC[C@H](C)CC2)c1=O)C(=O)O [Compound I-145]
IC50: 6 nM

COC(=O)C(C)(C)Cn1c(=O)[nH]/c(=N\c2ccc(Oc3ccccn3)cc2)n(Cc2ccc(Cl)cc2)c1=O [Compound I-149]
IC50: 5 nM

COC(=O)C(C)(C)Cn1c(=O)[nH]/c(=N\c2ccc(Oc3cncc(OC)c3)cc2)n(Cc2ccc(Cl)cc2)c1=O [Compound R-200]
IC50: 8 nM

Cc1ccc(Cn2c(=O)n(C[C@H](C)C(=O)O)c(=O)[nH]/c2=N\c2ccc(Oc3ncc(C)s3)cc2)cc1 [Compound R-218]
IC50: 6 nM

Cc1ccc(Cn2c(=O)n(C[C@H](C)C(=O)O)c(=O)[nH]/c2=N\c2ccc(Oc3ccccn3)c(F)c2)cc1 [Compound I-210]
IC50: 7 nM

CCc1ccc(Oc2ccc(/N=c3\[nH]c(=O)n(C[C@H](C)C(=O)O)c(=O)n3Cc3ccc(Cl)cc3)cc2)nc1 [Compound I-258]
IC50: 4 nM

CCOC(=O)[C@H]1C[C@@H](n2c(=O)[nH]/c(=N\c3ccc(Oc4ccccn4)cc3)n(Cc3ccc(C)cc3)c2=O)C1 [Compound I-181]
IC50: 5 nM

COC(=O)[C@@H](C)Cn1c(=O)[nH]/c(=N\c2ccc(Oc3ccnc(C)n3)cc2)n(Cc2ccc(Cl)cc2)c1=O [Compound R-042]
IC50: 5 nM

Cc1ccc(Cn2c(=O)n([C@@H](C)[C@@H](C)C(=O)O)c(=O)[nH]/c2=N\c2ccc(Oc3cccc(F)n3)cc2)cc1 [Compound I-106]
IC50: 6 nM

COC(=O)C(C)(C)Cn1c(=O)[nH]/c(=N\c2ccc(Oc3cc(Cl)ccn3)cc2)n(Cc2ccc(Cl)cc2)c1=O [Compound I-081]
IC50: 38 nM

COC(=O)[C@H](C)[C@H](C)n1c(=O)[nH]/c(=N\c2ccc(Oc3cnccn3)c(F)c2)n(Cc2ccc(Cl)cc2)c1=O [Compound R-122]
IC50: 13 nM

COC(=O)C(C)(C)Cn1c(=O)[nH]/c(=N\c2ccc(Oc3ccc(C)cn3)cc2)n(Cc2ccc(Cl)cc2)c1=O [Compound I-055]
IC50: 9 nM

CCn1c(=O)[nH]/c(=N\c2ccc(O[C@H]3C[C@@H](C(=O)O)C3)cc2)n(Cc2ccc(Cl)cc2)c1=O [Compound R-063]
IC50: 456 nM

CCc1ccc(Oc2ccc(/N=c3\[nH]c(=O)n(C[C@H](C)C(=O)O)c(=O)n3Cc3ccc(C)cc3)cc2)nc1 [Compound I-275]
IC50: 4 nM

COC(=O)[C@@H](C)Cn1c(=O)[nH]/c(=N\c2ccc(Oc3ccccn3)cc2)n(Cc2ccc(Cl)cc2)c1=O [Compound I-126]
IC50: 5 nM

CCc1oc2ccc(/N=c3\[nH]c(=O)n([C@H]4C[C@H](C(=O)O)C4)c(=O)n3Cc3ccc(Cl)cc3)cc2c1C [Compound R-023]
IC50: 21 nM

COC(=O)C(C)(C)Cn1c(=O)[nH]/c(=N\c2ccc(Oc3ccnc(C#N)c3)cc2)n(Cc2ccc(Cl)cc2)c1=O [Compound R-100]
IC50: 6 nM

Cc1ccc(Cn2c(=O)n(CC(C)(C)C(=O)O)c(=O)[nH]/c2=N\c2ccc(Oc3ccc(C)cn3)cc2)cc1 [Compound I-114]
IC50: 6 nM
